Laboratory results as given in patent US20050101595A1, “N-containing cycloalkyl-substituted amino-thiazole derivatives and pharmaceutical compositions for inhibiting cell proliferation and methods for their use” (PFIZER INC., priority 2003, published 2005).
Counter-ions that a name gives are not always drawn. Like-named read-outs stand apart in the source and are kept apart here.

Legend:
[1] = test system: HCT-116 cell line; assay: Inhibition of cell growth, tetrazolium salt (MTT) assay; assay type: cell-based; details: for HCT-116 % Inhibition at 0.25 μM: 0.25 μM compound; for IC50: Homo sapiens, HCT-116, 120 h, MTT, three to five days
Method in brief: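 Cells in McCoy's 5A medium were left 4 h, then given graded compound concentrations in 0.5% (v/v) DMSO and incubated three to five days at 37° C (5% CO2). MTT was added to 0.2 mg/mL for 4 h more; DMSO-solubilized formazan was read at 540 nm against 0.5% DMSO-only controls.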

[2] = target: CDK2/Cyclin A (Homo sapiens, UniProt P24941); assay: Inhibition of CDK2/Cyclin A Retinoblastoma Kinase Activity; assay type: biochemical; details: for Ki: apparent Ki, CDK2/proteolyzed cyclin A, Rb fragment substrate, 25 μM ATP; for CDK2 % Inhibition At 0.03 μM: Table 2
Method in brief: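 Human CDK2, baculovirus/insect-cell expressed, complexed with proteolyzed cyclin A (10 nM or 19 nM CDK2) phosphorylates an Rb fragment with 25 μM [32P/33P]ATP at pH 7.4, 30° C, for 60 or 75 minutes under initial-rate conditions. Filter-captured radioactivity is read by phosphorimager; apparent Ki from competitive-inhibition fits.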

[3] = target: human CDK4 and genetically truncated (1-264) cyclin D3 (Homo sapiens, UniProt P11802); assay: Inhibition of CDK4/Cyclin D Retinoblastoma Kinase Activity; assay type: biochemical; details: for Ki: apparent Ki, CDK4/truncated cyclin D3, Rb fragment substrate, 25 μM ATP
Method in brief: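 Read-out: 32P/33P incorporation into Rb fragment (386-928) captured on nitrocellulose, phosphorimager. Enzyme 5 nM CDK4/cyclin D3(1-264) from insect cells; ATP 25 μM, pH 7.4, 30 °C, 20 min (60 min for tight binders). Ki from competitive fits.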

[4] = 0.1 μM compound, HCT-116, Table 4
[5] = first HCT-116 column (c4), read-out: HCT-116 IC50
[6] = second HCT-116 column (c5), read-out: HCT-116 IC50

Chain of human CDK4 and genetically truncated (1-264) cyclin D3 (P11802 whole entry, the tested form may be a part): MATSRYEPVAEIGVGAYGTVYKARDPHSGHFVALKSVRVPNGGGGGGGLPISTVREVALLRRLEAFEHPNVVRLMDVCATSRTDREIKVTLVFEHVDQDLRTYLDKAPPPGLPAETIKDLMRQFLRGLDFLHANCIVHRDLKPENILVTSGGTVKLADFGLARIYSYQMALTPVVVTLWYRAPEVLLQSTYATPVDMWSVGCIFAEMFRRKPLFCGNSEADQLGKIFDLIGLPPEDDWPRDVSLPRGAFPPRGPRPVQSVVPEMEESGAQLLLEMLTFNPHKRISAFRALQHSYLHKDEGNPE
Chain of human CDK4 and genetically truncated (1-264) cyclin D3 (P30281 1-264 partner): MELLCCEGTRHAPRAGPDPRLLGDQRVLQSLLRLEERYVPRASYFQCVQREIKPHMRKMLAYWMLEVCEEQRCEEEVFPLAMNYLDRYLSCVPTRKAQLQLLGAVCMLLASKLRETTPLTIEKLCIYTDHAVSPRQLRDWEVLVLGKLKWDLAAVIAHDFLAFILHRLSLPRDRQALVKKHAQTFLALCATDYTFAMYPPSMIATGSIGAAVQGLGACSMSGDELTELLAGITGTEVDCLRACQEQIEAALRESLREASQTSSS

Nc1nc(NC2CCN(C(=O)c3ccc4c(c3)C(=O)OC4=O)CC2)sc1C(=O)c1c(F)cccc1F [Example Q66]
HCT-116 % Inhibition at 0.1 μM [1, 4]: 7%
HCT-116 % Inhibition at 0.25 μM ([1]; HCT-116, Table 4): 34%
CDK2 % Inhibition at 0.03 μM ([2]; 0.03 μM compound, Table 4): 7%
CDK4 % Inhibition at 0.03 μM ([3]; 0.03 μM compound, Table 4): 29%

CN(C)c1ccc(S(=O)(=O)N2CCC(Nc3nc(N)c(C(=O)c4c(F)cccc4F)s3)CC2)cn1 [Example F19, 1-{4-Amino-2-[1-(6-dimethylamino-pyridine-3-sulfonyl)-piperidin-4-ylamino]-thiazol-5-yl}-1-(2,6-difluoro-phenyl)-methanone]
IC50 [1, 5]: 0.048 µM
IC50 [1, 6]: 0.2 µM
Ki [2]: 0.0032 µM
Ki [3]: 0.0017 µM

CS(=O)(=O)c1csc(C(=O)N2CCC(Nc3nc(N)c(C(=O)c4c(F)cccc4F)s3)CC2)c1Cl [Example R72]
HCT-116 % Inhibition at 0.1 μM ([1]; HCT-116 cells, at 0.1 μM): 6%
HCT-116 5 Inhibition at 0.25 μM ([1]; HCT-116 cells): 43
CDK2 % Inhibition at 0.03 μM ([2]; at 0.03 μM): 57%
CDK4 % Inhibition at 0.03 μM ([3]; at 0.03 μM): 59%

Nc1nc(NC2CCN(C(=O)Nc3ccc(Cl)c(C(F)(F)F)c3)CC2)sc1C(=O)c1c(F)cccc1F [Example O51]
HCT-116 % Inhibition at 0.25 μM ([1]; HCT-116, Table 2): 11%
CDK2 % Inhibition At 0.03 μM ([2]; 0.03 μM compound): 30%
CDK4 % Inhibition at 0.03 μM ([3]; 0.03 μM compound, Table 2): 7%

N#Cc1cccc(C(=O)N2CCC(Nc3nc(N)c(C(=O)c4c(F)cccc4F)s3)CC2)c1 [Example R129]
HCT-116 % Inhibition at 0.1 μM ([1]; HCT-116 cells, at 0.1 μM): 0%
HCT-116 5 Inhibition at 0.25 μM ([1]; HCT-116 cells): 33
CDK2 % Inhibition at 0.03 μM ([2]; at 0.03 μM): 41%
CDK4 % Inhibition at 0.03 μM ([3]; at 0.03 μM): 62%

COC(=O)C(=O)N1CCC(Nc2nc(N)c(C(=O)c3c(F)cccc3F)s2)CC1 [Example Q38]
HCT-116 % Inhibition at 0.1 μM [1, 4]: 0%
HCT-116 % Inhibition at 0.25 μM ([1]; HCT-116, Table 4): 21%
CDK2 % Inhibition at 0.03 μM ([2]; 0.03 μM compound, Table 4): −12%
CDK4 % Inhibition at 0.03 μM ([3]; 0.03 μM compound, Table 4): 16%

Nc1nc(NC2CCN(C(=O)c3cnc4ccccc4n3)CC2)sc1C(=O)c1c(F)cccc1F [Example Q67]
HCT-116 % Inhibition at 0.1 μM [1, 4]: 9%
HCT-116 % Inhibition at 0.25 μM ([1]; HCT-116, Table 4): 30%
CDK2 % Inhibition at 0.03 μM ([2]; 0.03 μM compound, Table 4): 13%
CDK4 % Inhibition at 0.03 μM ([3]; 0.03 μM compound, Table 4): 50%

Nc1nc(NC2CCN(C(=O)Nc3ccc4ccccc4c3)CC2)sc1C(=O)c1c(F)cccc1F [Example O54]
HCT-116 % Inhibition at 0.25 μM ([1]; HCT-116, Table 2): 46%
CDK2 % Inhibition At 0.03 μM ([2]; 0.03 μM compound): 34%
CDK4 % Inhibition at 0.03 μM ([3]; 0.03 μM compound, Table 2): 15%

Nc1nc(NC2CCN(C(=O)Oc3ccc(Cl)cc3)CC2)sc1C(=O)c1c(F)cccc1F [Example C3, 4-[4-Amino-5-(2,6-difluoro-benzoyl)-thiazol-2-ylamino]-piperidine-1-carboxylic Acid 4-Chloro-phenyl Ester]
IC50 ([1]; read-out: HCT-116 IC50, first HCT-116 column (c4)): 0.33 µM
IC50 ([1]; read-out: HCT-116 IC50, second HCT-116 column (c5)): 1.2 µM
Ki [2]: 0.017 µM
Ki [3]: 0.0037 µM

COC(=O)[C@H](Cc1ccccc1)NC(=O)N1CCC(Nc2nc(N)c(C(=O)c3c(F)cccc3F)s2)CC1 [Example O78]
HCT-116 % Inhibition at 0.25 μM ([1]; HCT-116, Table 2): 47%
CDK2 % Inhibition At 0.03 μM ([2]; 0.03 μM compound): 25%
CDK4 % Inhibition at 0.03 μM ([3]; 0.03 μM compound, Table 2): 14%

CC(C)S(=O)(=O)c1csc(C(=O)N2CCC(Nc3nc(N)c(C(=O)c4c(F)cccc4F)s3)CC2)c1Cl [Example R62]
HCT-116 % Inhibition at 0.1 μM ([1]; HCT-116 cells, at 0.1 μM): 0%
HCT-116 5 Inhibition at 0.25 μM ([1]; HCT-116 cells): 38
CDK2 % Inhibition at 0.03 μM ([2]; at 0.03 μM): 65%
CDK4 % Inhibition at 0.03 μM ([3]; at 0.03 μM): 78%

Nc1nc(NC2CCN(S(=O)(=O)c3ccc(SCCN4CCOCC4)nc3)CC2)sc1C(=O)c1c(F)cccc1F [Example L7, 1-(4-Amino-2-{1-[6-(2-morpholin-4-yl-ethylsulfanyl)-pyridine-3-sulfonyl]-piperidin-4-ylamino}-thiazol-5-yl)-1-(2,6-difluoro-phenyl)-methanone Dihydrochloride.]
IC50 [1, 5]: 0.095 µM
IC50 [1, 6]: 0.3 µM
Ki [2]: 0.0015 µM
Ki [3]: 0.0022 µM

CN(C)CCS(=O)(=O)N1CCC(Nc2nc(N)c(C(=O)c3c(F)cccc3F)s2)CC1 [Example F26, {4-Amino-2-[1-(2-dimethylamino-ethanesulfonyl)-piperidin-4-ylamino]-thiazol-5-yl}-(2,6-difluoro-phenyl)-methanone]
IC50 [1, 5]: 0.28 µM
IC50 [1, 6]: 0.65 µM
Ki [2]: 0.015 µM
Ki [3]: 0.0022 µM

Cc1ccc(C)c(NC(=O)N2CCC(Nc3nc(N)c(C(=O)c4c(F)cccc4F)s3)CC2)c1 [Example O42]
HCT-116 % Inhibition at 0.25 μM ([1]; HCT-116, Table 2): 26%
CDK2 % Inhibition At 0.03 μM ([2]; 0.03 μM compound): 35%
CDK4 % Inhibition at 0.03 μM ([3]; 0.03 μM compound, Table 2): 10%

Nc1nc(NC2CCN(C(=O)Nc3cc(Cl)nc(Cl)c3)CC2)sc1C(=O)c1c(F)cccc1F [Example O64]
HCT-116 % Inhibition at 0.25 μM ([1]; HCT-116, Table 2): 37%
CDK2 % Inhibition At 0.03 μM ([2]; 0.03 μM compound): 32%
CDK4 % Inhibition at 0.03 μM ([3]; 0.03 μM compound, Table 2): 7%

CC1CC1C(=O)N1CCC(Nc2nc(N)c(C(=O)c3c(F)cccc3F)s2)CC1 (stereo not shown) [Example R93]
HCT-116 % Inhibition at 0.1 μM ([1]; HCT-116 cells, at 0.1 μM): 0%
HCT-116 5 Inhibition at 0.25 μM ([1]; HCT-116 cells): 42
CDK2 % Inhibition at 0.03 μM ([2]; at 0.03 μM): −10%
CDK4 % Inhibition at 0.03 μM ([3]; at 0.03 μM): −1%

CC(=O)Oc1ccccc1C(=O)N1CCC(Nc2nc(N)c(C(=O)c3c(F)cccc3F)s2)CC1 [Example R113]
HCT-116 % Inhibition at 0.1 μM ([1]; HCT-116 cells, at 0.1 μM): 0%
HCT-116 5 Inhibition at 0.25 μM ([1]; HCT-116 cells): 40
CDK2 % Inhibition at 0.03 μM ([2]; at 0.03 μM): 44%
CDK4 % Inhibition at 0.03 μM ([3]; at 0.03 μM): 48%

Nc1nc(NC2CCN(C(=O)c3ccccc3I)CC2)sc1C(=O)c1c(F)cccc1F [Example Q52]
HCT-116 % Inhibition at 0.1 μM [1, 4]: 0%
HCT-116 % Inhibition at 0.25 μM ([1]; HCT-116, Table 4): 24%
CDK2 % Inhibition at 0.03 μM ([2]; 0.03 μM compound, Table 4): 24%
CDK4 % Inhibition at 0.03 μM ([3]; 0.03 μM compound, Table 4): 53%

CCOC(=O)N1CCC(Nc2nc(N)c(C(=O)c3c(F)cccc3F)s2)CC1 [Example Q8]
HCT-116 % Inhibition at 0.1 μM [1, 4]: 6%
HCT-116 % Inhibition at 0.25 μM ([1]; HCT-116, Table 4): 45%
CDK2 % Inhibition at 0.03 μM ([2]; 0.03 μM compound, Table 4): −13%
CDK4 % Inhibition at 0.03 μM ([3]; 0.03 μM compound, Table 4): 15%

CCOc1ccccc1C(=O)N1CCC(Nc2nc(N)c(C(=O)c3c(F)cccc3F)s2)CC1 [Example R6]
HCT-116 % Inhibition at 0.1 μM ([1]; HCT-116 cells, at 0.1 μM): 12%
HCT-116 5 Inhibition at 0.25 μM ([1]; HCT-116 cells): 51
CDK2 % Inhibition at 0.03 μM ([2]; at 0.03 μM): 14%
CDK4 % Inhibition at 0.03 μM ([3]; at 0.03 μM): 42%

Nc1nc(NC2CCN(S(=O)(=O)c3ccc(OCCNC4CC4)nc3)CC2)sc1C(=O)c1c(F)cccc1F [Example H21, (4-Amino-2-{1-[6-(2-cyclopropylamino-ethoxy)-3-sulfonyl]-piperidin-4-ylamino}-thiazol-5-yl)-(2,6-difluoro-phenyl)-methanone Hydrochloride Salt]
IC50 [1, 5]: 0.11 µM
IC50 [1, 6]: 1.5 µM
Ki [2]: 0.0015 µM
Ki [3]: 0.00028 µM

Cc1ccccc1NC(=O)N1CCC(Nc2nc(N)c(C(=O)c3c(F)cccc3F)s2)CC1 [Example O11]
HCT-116 % Inhibition at 0.25 μM ([1]; HCT-116, Table 2): 0%
CDK2 % Inhibition At 0.03 μM ([2]; 0.03 μM compound): 35%
CDK4 % Inhibition at 0.03 μM ([3]; 0.03 μM compound, Table 2): 6%

Nc1nc(NC2CCN(C(=O)COc3cc(Cl)c(Cl)cc3Cl)CC2)sc1C(=O)c1c(F)cccc1F [Example R12]
HCT-116 % Inhibition at 0.1 μM ([1]; HCT-116 cells, at 0.1 μM): 0%
HCT-116 5 Inhibition at 0.25 μM ([1]; HCT-116 cells): 48
CDK2 % Inhibition at 0.03 μM ([2]; at 0.03 μM): −10%
CDK4 % Inhibition at 0.03 μM ([3]; at 0.03 μM): 23%

Nc1nc(NC2CCN(C(=O)c3ccc(Cl)nc3)CC2)sc1C(=O)c1c(F)cccc1F [Example C9, 1-(4-Amino-2-{1-[-(6-chloro-pyridin-3-yl)-methanoyl]-piperidin-4-ylamino}-thiazol-5-yl)-1-(2,6-difluoro-phenyl)-methanone]
IC50 [1, 5]: 0.59 µM
IC50 [1, 6]: 1.3 µM
Ki [2]: 0.067 µM
Ki [3]: 0.02 µM

Cc1c[nH]c(-c2ccc(S(=O)(=O)N3CCC(Nc4nc(N)c(C(=O)c5c(F)cccc5F)s4)CC3)cn2)n1 [Example I2, 1-(4-Amino-2-{1-[6-(4-methyl-1H-imidazol-2-yl)-pyridine-3-sulfonyl]-piperidin-4-ylamino}-thiazol-5-yl)-1-(2,6-difluoro-phenyl)-methanone Hydrochloride]
IC50 [1, 5]: 0.24 µM
IC50 [1, 6]: 1.4 µM
Ki [2]: 0.00041 µM
Ki [3]: 0.00072 µM
